In US20090275557A1, “Novel Composition for Treatment of Diseases Related to Activated Lymphocytes” (Immune Control, Inc., priority 2008, published 2009):

System: bovine type 2 collagen immunized rats
Assay: Collagen-induced arthritis assay, IP injection protocol, ankle diameter
Format: in vivo, rat
Details: IP injection 10 mg/kg once per day, study days 1-3; observed on study days 2-4
Experimental: Female Lewis rats (CR) weighing between 125-200 g were immunized with bovine type 2 collagen, 2 mg/ml in a 1:1 solution of 0.01 N acetic acid and Freund's incomplete adjuvant (“FIA”). A 0.1 ml portion of the collagen solution was injected id (intradermally) at three sites on the rat. Rats were immunized with the collagen solution on days 1 and 6 of the study. […] On day 9 (study day “0”), baseline ankle diameters were measured. On days 10-15 (study days 1-6), the rats were then treated, via oral gavage, with either 1, 5, or 25 mg/kg of one of ICI-1259 or ICI-1260, prepared as described below. Ankle diameter measurements were measured on each of days 10-16.
Compounds ICI-1259, ICI-1260, ICI-1505, and ICI-1506 were administered via IP injection to treat collagent-induced arthritis in a variation of the experiments described above. Under the protocol of the IP injection experiments, animal were immunized with Bovine Type 2 collagen as previously described. […] On day 9 (study day “0”), baseline ankle diameters were measured. On days 10-12 (study days 1-3), the rats were then treated once per day, via IP injection, with one of ICI-1259, ICI-1260, ICI-1505, or ICI-1506 at 10 mg/kg. Ankle diameter in the immunized rodents was measured on each of days 10-13 as well as on day 14. […] See FIG. 18 (ICI-1259, ICI-1260, and ICI-1505) and FIG. 19 (ICI-1506).
In a separate study, using the IP injection protocol described above, ICI-1259 and 1260 were each dosed at 2 mg/kg and 0.4 mg/kg.

Row | Structure (SMILES) | reduction in ankle swelling (ankle diameter)
1 | FC(F)(F)c1ccc2c(c1)N(CCCC1CCN(CCCN3CCCCC3)CC1)c1ccccc1S2 [ICI-1506, 10-(3-(1-(3-(piperidin-1-yl)propyl)piperidin-4-yl)propyl)-2-(trifluoromethyl)-10H-phenothiazine] | statistically significant results were observed
2 | CN(C)CCCN1CCC(CCCN2c3ccccc3Sc3ccc(C(F)(F)F)cc32)CC1 [ICI-1505, N,N-dimethyl-3-(4-(3-(2-(trifluoromethyl)-10H-phenothiazin-10-yl)propyl)piperidin-1-yl)propan-1-amine] | statistically significant results were observed
